In EP4345092A1, “NITROBENZAMIDE COMPOUNDS, METHODS AND USES THEREOF” (Faculdade de Farmácia da Universidade de Lisboa, priority 2022, dated 2024) one finds MIC and MBC data, which are given here for 39 compounds.

As usually defined, the MIC is the smallest concentration in the dilution series that meets the test's criterion for growth inhibition.

Assay [1] deals with Mycobacterium tuberculosis H37Rv (ATCC 27294). The experiment in a line: Minimum Inhibitory Concentration (MIC), broth microdilution in 96-well plates. It counts as cell-based. On the technique in general: In broth dilution the organism is exposed to a series of concentrations in liquid medium.
The test system is the same in assay [2]. In words: microbe, parasite or virus in culture. It is filed as cell-based. To be noted: 504 h.

Molecules are shown by their SMILES. In brackets after ≈: the same amount, converted by molar mass. Several values for one entry are separate records, joined by “and”; a condition that tells them apart may be missing. Equal entries are not always repeated. Where two headings read alike, the source gives them in different places.

Regarding `O=C(NCCOc1ccc(-c2ccccc2)cc1)c1cc([N+](=O)[O-])cc([N+](=O)[O-])c1` [Compound 1], the MIC in assay [1] is 0.063 µg/mL and 0.155 µM. Same read-out and setting: then `O=C(NCCOc1ccc(Br)cc1)c1cc([N+](=O)[O-])cc([N+](=O)[O-])c1` [Compound 5], with 0.063 µg/mL and 0.154 µM; and `O=C(NCCOc1ccc(C(F)(F)F)cc1)c1cc([N+](=O)[O-])cc([N+](=O)[O-])c1` [Compound 6], with 0.125 µg/mL and 0.313 µM. Still for that read-out and setting: then `O=C(NCCOc1ccc(Cc2ccccc2)cc1)c1cc([N+](=O)[O-])cc([N+](=O)[O-])c1` [Compound 7], with 0.063 µg/mL and 0.149 µM. Consider `O=C(NCCCOc1ccc(-c2ccccc2)cc1)c1cc([N+](=O)[O-])cc([N+](=O)[O-])c1` [Compound 8, N-(3-(4-phenylphenoxy)propyl)-3,5-dinitrobenzamide], for which the MIC in assay [1] was 0.063 µg/mL and 0.149 µM. Moreover, the MBC in assay [2] worked out at 0.125 µg/mL (≈ 0.297 µM). As to `COc1ccc(OCCCNC(=O)c2cc([N+](=O)[O-])cc([N+](=O)[O-])c2)cc1` [Compound 9, N-(3-(4-methoxyphenoxy)propyl)-3,5-dinitrobenzamide], the MIC in assay [1] was 0.063 µg/mL and 0.168 µM. This compound registered an MBC in assay [2] of 0.125 µg/mL (≈ 0.333 µM). On to `O=C(NCCCOc1ccc(OC(F)(F)F)cc1)c1cc([N+](=O)[O-])cc([N+](=O)[O-])c1` [Compound 10, N-(3-(4-trifluoromethoxyphenoxy)propyl)-3,5-dinitrobenzamide], for which, in assay [1], the MIC was 0.063 µg/mL and 0.147 µM. This compound displayed an MBC in assay [2] of 0.25 µg/mL (≈ 0.582 µM). Consider `O=C(NCCCOc1ccc(F)cc1)c1cc([N+](=O)[O-])cc([N+](=O)[O-])c1` [Compound 11, N-(3-(4-fluorophenoxy)propyl)-3,5-dinitrobenzamide], for which the MIC in assay [1] is 0.063 µg/mL and 0.173 µM. In assay [2], this compound came in with an MBC of 0.125 µg/mL (≈ 0.344 µM). As to `O=C(NCCCOc1ccc(C(F)(F)F)cc1)c1cc([N+](=O)[O-])cc([N+](=O)[O-])c1` [Compound 12, N-(3-(4-trifluoromethylphenoxy)propyl)-3,5-dinitrobenzamide], the MIC in assay [1] is 0.125 µg/mL and 0.302 µM. As for `O=C(NCCCOc1ccccc1)c1cc([N+](=O)[O-])cc([N+](=O)[O-])c1` [Compound 13, N-(3-(phenoxy)propyl)-3,5-dinitrobenzamide], in assay [1], the MIC is 0.063 µg/mL and 0.182 µM. Further, the MBC in assay [2] amounted to 0.125 µg/mL (≈ 0.362 µM). As for `O=C(NCCCCCOc1ccc(-c2ccccc2)cc1)c1cc([N+](=O)[O-])cc([N+](=O)[O-])c1` [Compound 14, N-(5-(4-phenylphenoxy)pentyl)-3,5-dinitrobenzamide], in assay [1], the MIC is 0.063 µg/mL and 0.14 µM. In assay [2], this compound came in with an MBC of 0.125 µg/mL (≈ 0.278 µM). Regarding `COc1ccc(OCCCCCNC(=O)c2cc([N+](=O)[O-])cc([N+](=O)[O-])c2)cc1` [Compound 15, N-(5-(4-methoxyphenoxy)pentyl)-3,5-dinitrobenzamide], the MIC in assay [1] is 0.063 µg/mL and 0.156 µM. Besides, the MBC in assay [2] turned out to be 0.125 µg/mL (≈ 0.31 µM). `O=C(NCCCCCOc1ccc(OC(F)(F)F)cc1)c1cc([N+](=O)[O-])cc([N+](=O)[O-])c1` [Compound 16, N-(5-(4-trifluoromethoxyphenoxy)pentyl)-3,5-dinitrobenzamide]: the MIC in assay [1] was 0.031 µg/mL and 0.0678 µM. In assay [2], this compound registered an MBC of 0.063 µg/mL (≈ 0.138 µM). For the compound `O=C(NCCCCCOc1ccc([N+](=O)[O-])cc1)c1cc([N+](=O)[O-])cc([N+](=O)[O-])c1` [Compound 17, N-(5-(4-nitrophenoxy)pentyl)-3,5-dinitrobenzamide], the MIC in assay [1] is 0.031 µg/mL and 0.0741 µM. In addition, the MBC in assay [2] turned out to be 0.125 µg/mL (≈ 0.299 µM). Take `O=C(NCCCCCOc1ccc(F)cc1)c1cc([N+](=O)[O-])cc([N+](=O)[O-])c1` [Compound 18, N-(5-(4-fluorophenoxy)pentyl)-3,5-dinitrobenzamide]: the MIC in assay [1] was 0.031 µg/mL and 0.0792 µM. In addition, the MBC in assay [2] was 0.063 µg/mL (≈ 0.161 µM).

For `O=C(NCCCCCOc1ccc(Cl)cc1)c1cc([N+](=O)[O-])cc([N+](=O)[O-])c1` [Compound 19, N-(5-(4-chlorophenoxy)pentyl)-3,5-dinitrobenzamide], the MIC in assay [1] is 0.016 µg/mL and 0.0392 µM. Moreover, the MBC in assay [2] stood at 0.063 µg/mL (≈ 0.154 µM). In the case of `O=C(NCCCCCOc1ccc(C(F)(F)F)cc1)c1cc([N+](=O)[O-])cc([N+](=O)[O-])c1` [Compound 20, N-(5-(4-trifluoromethylphenoxy)pentyl)-3,5-dinitrobenzamide], in assay [1], the MIC is 0.031 µg/mL and 0.0702 µM. This compound also gave an MBC in assay [2] of 0.063 µg/mL (≈ 0.143 µM). With `O=C(NCCCCCOc1ccc(Cc2ccccc2)cc1)c1cc([N+](=O)[O-])cc([N+](=O)[O-])c1` [Compound 21, N-(5-(4-benzylphenoxy)pentyl)-3,5-dinitrobenzamide], the MIC in assay [1] was 0.063 µg/mL and 0.136 µM. In assay [2], the MBC is 0.25 µg/mL (≈ 0.539 µM). Consider `O=C(NCCCCCOc1ccc(Br)cc1)c1cc([N+](=O)[O-])cc([N+](=O)[O-])c1` [Compound 22, N-(5-(4-bromophenoxy)pentyl)-3,5-dinitrobenzamide], for which the MIC in assay [1] is 0.031 µg/mL and 0.0685 µM. Moreover, the MBC in assay [2] came out at 0.063 µg/mL (≈ 0.139 µM). Regarding `O=C(NCCCCCOc1ccccc1)c1cc([N+](=O)[O-])cc([N+](=O)[O-])c1` [Compound 23, N-(5-(phenoxy)pentyl)-3,5-dinitrobenzamide], the MIC in assay [1] was 0.031 µg/mL and 0.083 µM. The same compound had an MBC in assay [2] of 0.063 µg/mL (≈ 0.169 µM).

On to `COc1ccc(OCCCCCCCCCNC(=O)c2cc([N+](=O)[O-])cc([N+](=O)[O-])c2)cc1` [Compound 24, N-(9-(4-methoxyphenoxy)nonyl)-3,5-dinitrobenzamide], for which the MIC in assay [1] was 0.016 µg/mL and 0.0348 µM. For the same compound, the MBC in assay [2] is 0.031 µg/mL (≈ 0.0675 µM). Turning to `COc1ccc(OCCCCCCCCCCCNC(=O)c2cc([N+](=O)[O-])cc([N+](=O)[O-])c2)cc1` [Compound 26, N-(11-(4-methoxyphenoxy)undecyl)-3,5-dinitrobenzamide], the MIC in assay [1] is 0.063 µg/mL and 0.129 µM. Moreover, in assay [2], the MBC came to 0.125 µg/mL (≈ 0.256 µM). The compound `C[N+]1(C)CCN(C(=O)c2cc([N+](=O)[O-])cc([N+](=O)[O-])c2)CC1` [Compound 28, 4-(3,5-dinitrobenzoyl)-1,1-dimethylpiperazin-1-ium] showed an MIC in assay [1] of over 16 µg/mL. In addition, the MBC in assay [2] is over 16 µg/mL. As to `O=C(c1cc([N+](=O)[O-])cc([N+](=O)[O-])c1)N1CCN(Cc2ccccc2)CC1` [Compound 29, (3,5-dinitrophenyl)-4-benzylpiperazin-1-yl-methanone], the MIC in assay [1] was 2 µg/mL and 5.4 µM. In assay [2], this compound showed an MBC of 4 µg/mL (≈ 10.8 µM).

Consider `O=C(c1cc([N+](=O)[O-])cc([N+](=O)[O-])c1)N1CCC(Cc2ccccc2)CC1` [Compound 31, (3,5-dinitrophenyl)-4-benzylpiperidin-1-yl-methanone], for which, in assay [1], the MIC was 0.5 µg/mL and 1.35 µM. In assay [2], this compound displayed an MBC of 2 µg/mL (≈ 5.41 µM). `COc1ccc(OC2CCN(C(=O)c3cc([N+](=O)[O-])cc([N+](=O)[O-])c3)CC2)cc1` [Compound 32, (3,5-dinitrophenyl)(4-(4-methoxyphenoxy)piperidin-1-yl)methanone]: in assay [1], the MIC is 2 µg/mL and 4.98 µM. Compound `O=C(c1cc([N+](=O)[O-])cc([N+](=O)[O-])c1)N1CCC(O)CC1` [Compound 33, (3,5-dinitrophenyl)-4-hydroxypiperidin-1-yl-methanone] had a minimal inhibitory concentration (MIC) in assay [1] of over 16 µg/mL. The MBC in assay [2] was determined as 16 µg/mL (≈ 54.2 µM). The like results for `O=C(c1cc([N+](=O)[O-])cc([N+](=O)[O-])c1)N1CCCCC1` [Compound 34, (3,5-dinitrophenyl)-piperidin-1-yl-methanone] were, in that order, over 16 µg/mL and 16 µg/mL (≈ 57.3 µM). In the same order, the values of `O=C(c1cc([N+](=O)[O-])cc([N+](=O)[O-])c1)N1CCOCC1` [Compound 35, (3,5-dinitrophenyl)(morpholino)methanone] are over 16 µg/mL and over 16 µg/mL. As to `CCCCCCCCCOCCCCCCCCCNC(=O)c1cc([N+](=O)[O-])cc([N+](=O)[O-])c1` [Compound 36, N-(9-(nonyloxy)nonyl)-3,5-dinitrobenzamide], in assay [1], the MIC is 0.063 µg/mL and 0.127 µM. In the case of `O=C(NCCCCCCCCCO)c1cc([N+](=O)[O-])cc([N+](=O)[O-])c1` [Compound 37, N-(9-hydroxynonyl)-3,5-dinitrobenzamide], the MIC in assay [1] is 0.25 µg/mL and 0.707 µM. Same read-out and setting: the figure for `O=C(NCCCCCO)c1cc([N+](=O)[O-])cc([N+](=O)[O-])c1` [Compound 38, N-(5-hydroxypentyl)-3,5-dinitrobenzamide] is 2 µg/mL and 6.73 µM. Still for that read-out and setting: the figure for `O=C(NCCCO)c1cc([N+](=O)[O-])cc([N+](=O)[O-])c1` [Compound 39, N-(3-hydroxypropyl)-3,5-dinitrobenzamide] is 4 µg/mL and 14.9 µM; for `O=C(NCCO)c1cc([N+](=O)[O-])cc([N+](=O)[O-])c1` [Compound 40, N-(2-hydroxyethyl)-3,5-dinitrobenzamide] it is 16 µg/mL and 62.7 µM.

For `O=C(NCCCCCCCCCCCO)c1cc([N+](=O)[O-])cc([N+](=O)[O-])c1` [Compound 41, N-(11-hydroxyundecyl)-3,5-dinitrobenzamide], in assay [1], the MIC was 0.125 µg/mL and 0.328 µM. Moreover, the MBC in assay [2] worked out at 0.25 µg/mL (≈ 0.655 µM). For the compound `O=C(NCCOc1ccccc1)c1cc([N+](=O)[O-])cc(C(F)(F)F)c1` [Compound 42], the MIC is 0.25 µg/mL in assay [1] (M. tuberculosis H37Rv, 10th day of incubation, concentration with no visible turbidity, read-out: MIC) and 671 nM in assay [1] (M. tuberculosis H37Rv, 10th day of incubation, same MIC expressed in nM, read-out: MIC). Consider `O=C(NCCCCCN1CCCCC1)c1cc([N+](=O)[O-])cc([N+](=O)[O-])c1` [Compound 44], for which the MIC in assay [1] is 16 µg/mL and 43.9 µM. Besides, the MBC in assay [2] was over 16 µg/mL. For the compound `O=[N+]([O-])c1cc(C2=NCCO2)cc([N+](=O)[O-])c1` [Compound 47, 2-(3,5-dinitrophenyl)-4,5-dihydrooxazole], the MIC in assay [1] is 2 µg/mL and 8.43 µM. In assay [2], this compound yielded an MBC of 4 µg/mL (≈ 16.9 µM).

Turning to `O=[N+]([O-])c1cc(C2=NCCCO2)cc([N+](=O)[O-])c1` [Compound 48, 2-(3,5-dinitrophenyl)-5,6-dihydro-4H-1,3-oxazine], in assay [1], the MIC was 16 µg/mL and 63.7 µM. Besides, the MBC in assay [2] was over 16 µg/mL.
